Laboratory results: the NIST ThermoML archive (doi:10.1016/j.tca.2010.05.012)

Assay: molar heat capacity at constant pressure
Details: Liquid, Large sample (1 g) DSC

CC(C)O [propan-2-ol]
molar heat capacity at constant pressure [J/K/mol]
Details | 100 kPa | 20000 kPa | 40000 kPa
253.15 K | 129.4 | 126.1 | 125.8
258.15 K | 130.6 | 128.3 | 127.3
263.15 K | 132.6 | 130.7 | 129.2
268.15 K | 135 | 133.4 | 131.5
273.15 K | 138 | 136.3 | 134
278.15 K | 141.4 | 139.4 | 136.8
283.15 K | 145.1 | 142.6 | 140
288.15 K | 148.9 | 146 | 143.3
293.15 K | 152.9 | 149.6 | 146.9
298.15 K | 157 | 153.3 | 150.7
303.15 K | 161.1 | 157.1 | 154.7
308.15 K | 165 | 161.1 | 159
313.15 K | 168.6 | 165 | 163.3
318.15 K | 171.9 | 169.1 | 167.8
323.15 K | 174.9 | 173.2 | 172.4
